# System: Energy system protein genes
# Test: DNA chip mRNA expression in yeast, energy system protein genes (Table 4)
# Type: cell-based, Saccharomyces cerevisiae S288C
# In short: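 Untreated cultures served as reference for log-phase S288C yeast given a growth-inhibiting, non-lethal toxicant dose for 2 h at 25° C. in YPD. Gene expression was measured on a whole-genome DNA chip from Cy3/Cy5-labeled cDNA.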
compound,measurement,setting,value
"C[S+](C)[O-] [(15), dimethylsulfoxide]",The level of expressed mRNA in the presence of chemical substance/The level of expressed mRNA in the absence of chemical substance,yeast gene YAL038W,3.1
same,The level of expressed mRNA in the presence of chemical substance/The level of expressed mRNA in the absence of chemical substance,yeast gene YAL054C,0.9
same,The level of expressed mRNA in the presence of chemical substance/The level of expressed mRNA in the absence of chemical substance,yeast gene YAL060W,0.9
same,The level of expressed mRNA in the presence of chemical substance/The level of expressed mRNA in the absence of chemical substance,"yeast gene YBL058W, cells incubated two hours with the chemical substance",1.8
same,The level of expressed mRNA in the presence of chemical substance/The level of expressed mRNA in the absence of chemical substance,yeast gene YBR126C,1.0
same,The level of expressed mRNA in the presence of chemical substance/The level of expressed mRNA in the absence of chemical substance,yeast gene YBR145W,1.2
same,The level of expressed mRNA in the presence of chemical substance/The level of expressed mRNA in the absence of chemical substance,yeast gene YBR196C,1.9
same,The level of expressed mRNA in the presence of chemical substance/The level of expressed mRNA in the absence of chemical substance,yeast gene YBR299W,0.6
same,The level of expressed mRNA in the presence of chemical substance/The level of expressed mRNA in the absence of chemical substance,yeast gene YCL040W,3.4
same,The level of expressed mRNA in the presence of chemical substance/The level of expressed mRNA in the absence of chemical substance,yeast gene YCR005C,0.7
same,The level of expressed mRNA in the presence of chemical substance/The level of expressed mRNA in the absence of chemical substance,yeast gene YCR012W,1.4
same,The level of expressed mRNA in the presence of chemical substance/The level of expressed mRNA in the absence of chemical substance,yeast gene YCR107W,4.8
same,The level of expressed mRNA in the presence of chemical substance/The level of expressed mRNA in the absence of chemical substance,"yeast gene YDL067C, cells incubated two hours with the chemical substance",0.7
same,The level of expressed mRNA in the presence of chemical substance/The level of expressed mRNA in the absence of chemical substance,"yeast gene YDL078C, cells incubated two hours with the chemical substance",0.5
same,The level of expressed mRNA in the presence of chemical substance/The level of expressed mRNA in the absence of chemical substance,"yeast gene YDL085W, cells incubated two hours with the chemical substance",0.7
same,The level of expressed mRNA in the presence of chemical substance/The level of expressed mRNA in the absence of chemical substance,yeast gene YDL174C,0.6
same,The level of expressed mRNA in the presence of chemical substance/The level of expressed mRNA in the absence of chemical substance,"yeast gene YDL181W, cells incubated two hours with the chemical substance",0.4
same,The level of expressed mRNA in the presence of chemical substance/The level of expressed mRNA in the absence of chemical substance,yeast gene YDL243C,4.2
same,The level of expressed mRNA in the presence of chemical substance/The level of expressed mRNA in the absence of chemical substance,"yeast gene YDR178W, cells incubated two hours with the chemical substance",0.7
same,The level of expressed mRNA in the presence of chemical substance/The level of expressed mRNA in the absence of chemical substance,yeast gene YDR231C,1.0
same,The level of expressed mRNA in the presence of chemical substance/The level of expressed mRNA in the absence of chemical substance,"yeast gene YDR298C, cells incubated two hours with the chemical substance",0.8
same,The level of expressed mRNA in the presence of chemical substance/The level of expressed mRNA in the absence of chemical substance,yeast gene YDR380W,2.4
same,The level of expressed mRNA in the presence of chemical substance/The level of expressed mRNA in the absence of chemical substance,"yeast gene YDR529C, cells incubated two hours with the chemical substance",0.5
same,The level of expressed mRNA in the presence of chemical substance/The level of expressed mRNA in the absence of chemical substance,yeast gene YEL020C,1.4
same,The level of expressed mRNA in the presence of chemical substance/The level of expressed mRNA in the absence of chemical substance,"yeast gene YEL039C, cells incubated two hours with the chemical substance",0.4
same,The level of expressed mRNA in the presence of chemical substance/The level of expressed mRNA in the absence of chemical substance,"yeast gene YEL071W, cells incubated two hours with the chemical substance",1.6
same,The level of expressed mRNA in the presence of chemical substance/The level of expressed mRNA in the absence of chemical substance,"yeast gene YER061C, cells incubated two hours with the chemical substance",0.8
same,The level of expressed mRNA in the presence of chemical substance/The level of expressed mRNA in the absence of chemical substance,yeast gene YER178W,1.8
same,The level of expressed mRNA in the presence of chemical substance/The level of expressed mRNA in the absence of chemical substance,yeast gene YFL057C,3.1
same,The level of expressed mRNA in the presence of chemical substance/The level of expressed mRNA in the absence of chemical substance,yeast gene YFR053C,0.6
same,The level of expressed mRNA in the presence of chemical substance/The level of expressed mRNA in the absence of chemical substance,yeast gene YGL062W,2.7
same,The level of expressed mRNA in the presence of chemical substance/The level of expressed mRNA in the absence of chemical substance,"yeast gene YGL191W, cells incubated two hours with the chemical substance",0.7
same,The level of expressed mRNA in the presence of chemical substance/The level of expressed mRNA in the absence of chemical substance,yeast gene YGL253W,0.8
same,The level of expressed mRNA in the presence of chemical substance/The level of expressed mRNA in the absence of chemical substance,yeast gene YGR008C,1.5
same,The level of expressed mRNA in the presence of chemical substance/The level of expressed mRNA in the absence of chemical substance,"yeast gene YGR062C, cells incubated two hours with the chemical substance, 25° C., YPD medium",0.5
same,The level of expressed mRNA in the presence of chemical substance/The level of expressed mRNA in the absence of chemical substance,"yeast gene YGR087C, cells incubated two hours with the chemical substance",3.5
same,The level of expressed mRNA in the presence of chemical substance/The level of expressed mRNA in the absence of chemical substance,"yeast gene YGR174C, cells incubated two hours with the chemical substance",0.7
same,The level of expressed mRNA in the presence of chemical substance/The level of expressed mRNA in the absence of chemical substance,yeast gene YGR192C,1.9
same,The level of expressed mRNA in the presence of chemical substance/The level of expressed mRNA in the absence of chemical substance,yeast gene YGR207C,0.6
same,The level of expressed mRNA in the presence of chemical substance/The level of expressed mRNA in the absence of chemical substance,yeast gene YGR244C,2.0
same,The level of expressed mRNA in the presence of chemical substance/The level of expressed mRNA in the absence of chemical substance,yeast gene YGR254W,2.4
same,The level of expressed mRNA in the presence of chemical substance/The level of expressed mRNA in the absence of chemical substance,yeast gene YGR256W,2.7
same,The level of expressed mRNA in the presence of chemical substance/The level of expressed mRNA in the absence of chemical substance,yeast gene YHL008C,1.8
same,The level of expressed mRNA in the presence of chemical substance/The level of expressed mRNA in the absence of chemical substance,yeast gene YHR174W,2.0
same,The level of expressed mRNA in the presence of chemical substance/The level of expressed mRNA in the absence of chemical substance,yeast gene YHR179W,2.7
same,The level of expressed mRNA in the presence of chemical substance/The level of expressed mRNA in the absence of chemical substance,yeast gene YIL045W,0.6
same,The level of expressed mRNA in the presence of chemical substance/The level of expressed mRNA in the absence of chemical substance,yeast gene YIL111W,1.1
same,The level of expressed mRNA in the presence of chemical substance/The level of expressed mRNA in the absence of chemical substance,yeast gene YIL160C,5.6
same,The level of expressed mRNA in the presence of chemical substance/The level of expressed mRNA in the absence of chemical substance,yeast gene YIL172C,1.4
same,The level of expressed mRNA in the presence of chemical substance/The level of expressed mRNA in the absence of chemical substance,"yeast gene YIR031C, cells incubated two hours with the chemical substance",0.8
